Assay results: PubChem BioAssay AID1794812
Inconclusive results are not listed.

Target: Excitatory amino acid transporter 3 (Homo sapiens) (UniProt P43005)
Experiment: SLC1A1 substrate-evoked membrane depolarization, dose response, membrane potential dye, HEK-293 overexpressing cells (AID 1794812)
Conditions: HEK-293 SLC1A1 OE, FLIPR membrane potential dye

Chain of Excitatory amino acid transporter 3 (Homo sapiens) (P43005 whole entry, looked up): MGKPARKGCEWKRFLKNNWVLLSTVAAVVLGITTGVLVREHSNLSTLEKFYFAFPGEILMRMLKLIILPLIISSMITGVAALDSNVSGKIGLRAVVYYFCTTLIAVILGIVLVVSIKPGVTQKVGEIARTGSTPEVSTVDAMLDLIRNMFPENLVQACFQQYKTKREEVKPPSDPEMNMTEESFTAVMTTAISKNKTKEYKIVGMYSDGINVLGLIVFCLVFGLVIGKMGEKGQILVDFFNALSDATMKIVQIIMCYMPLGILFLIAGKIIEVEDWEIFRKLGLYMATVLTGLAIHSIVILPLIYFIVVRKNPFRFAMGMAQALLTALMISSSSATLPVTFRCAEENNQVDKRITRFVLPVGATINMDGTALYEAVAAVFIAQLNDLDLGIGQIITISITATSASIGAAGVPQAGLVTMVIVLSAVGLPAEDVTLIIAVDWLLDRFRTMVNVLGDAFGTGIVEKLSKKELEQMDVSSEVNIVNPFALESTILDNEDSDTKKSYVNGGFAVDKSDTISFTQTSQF

Question: Which EC50 does the source give for `N[C@@H](CS)C(=O)O` here?
Answer: 161 µM
